Data reported in patent US20230118688A1, “1H-PYRAZOLO[4,3-d]PYRIMIDINE COMPOUNDS AS TOLL-LIKE RECEPTOR 7 (TLR7) AGONISTS” (BRISTOL-MYERS SQUIBB COMPANY, priority 2020, published 2023).
Read-outs that look alike come from different tables or passages of the source.

Tests used:
human TLR7 = molecular target: T1, human TLR7 (Homo sapiens, UniProt Q9NYK1); experiment: Human TLR7 agonist activity reporter assay (HEK-Blue TLR7 cells, SEAP reporter); type: cell-based; details: 18 h treatment
T1 construct: host or cells: HEK-Blue TLR7 cells (engineered human embryonic kidney cells)
T1 sequence (Q9NYK1 27-1049): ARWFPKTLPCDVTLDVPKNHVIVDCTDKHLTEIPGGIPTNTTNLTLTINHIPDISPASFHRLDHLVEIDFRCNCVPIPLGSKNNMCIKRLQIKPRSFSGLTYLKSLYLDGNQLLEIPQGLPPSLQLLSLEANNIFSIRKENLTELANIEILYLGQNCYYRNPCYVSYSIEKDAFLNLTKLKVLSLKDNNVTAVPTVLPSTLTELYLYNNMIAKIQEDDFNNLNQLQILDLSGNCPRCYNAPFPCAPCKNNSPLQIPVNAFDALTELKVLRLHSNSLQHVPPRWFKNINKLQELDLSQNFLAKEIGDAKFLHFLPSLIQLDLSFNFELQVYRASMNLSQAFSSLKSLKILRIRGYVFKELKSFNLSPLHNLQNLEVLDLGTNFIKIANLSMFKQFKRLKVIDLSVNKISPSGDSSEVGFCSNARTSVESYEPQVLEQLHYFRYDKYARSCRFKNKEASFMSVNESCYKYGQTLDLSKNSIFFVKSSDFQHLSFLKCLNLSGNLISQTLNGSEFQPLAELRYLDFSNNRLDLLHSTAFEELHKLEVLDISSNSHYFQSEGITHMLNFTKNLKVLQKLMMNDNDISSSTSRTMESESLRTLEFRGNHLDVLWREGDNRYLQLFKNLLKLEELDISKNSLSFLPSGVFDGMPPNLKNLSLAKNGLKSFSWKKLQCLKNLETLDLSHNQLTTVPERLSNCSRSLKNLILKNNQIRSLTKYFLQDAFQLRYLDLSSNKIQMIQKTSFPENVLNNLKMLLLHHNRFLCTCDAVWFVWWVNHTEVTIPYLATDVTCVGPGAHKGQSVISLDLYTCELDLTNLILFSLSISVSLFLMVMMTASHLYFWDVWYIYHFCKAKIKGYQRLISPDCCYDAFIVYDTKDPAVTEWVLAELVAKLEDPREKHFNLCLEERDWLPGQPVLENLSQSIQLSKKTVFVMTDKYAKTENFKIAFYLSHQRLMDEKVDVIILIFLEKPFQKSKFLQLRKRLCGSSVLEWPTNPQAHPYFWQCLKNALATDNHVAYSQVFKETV
Experimental: This procedure describes a method for assaying human TLR7 (hTLR7) agonist activity of the compounds disclosed in this specification.
HEK-Blue™ TLR7 cells were added to each well of a 384-well tissue-culture plate (15,000 cells per well) and incubated 16-18 h at 37° C., 5% CO2. Compounds (100 nl) were dispensed into wells containing the HEK-Blue™ TLR cells and the treated cells were incubated at 37° C., 5% CO2. After 18 h treatment ten microliters of freshly-prepared Quanti-Blue™ reagent (Invivogen) was added to each well, incubated for 30 min (37° C., 5% CO2) and SEAP levels measured using an Envision plate reader (OD=620 nm). The half maximal effective concentration values (EC50; compound concentration which induced a response halfway between the assay baseline and maximum) were calculated.

CD69 = experiment: Induction of CD69 in human whole blood; type: cell-based; details: 17 h, CD69 surface staining, 100% set to 1 uM resiquimod
Experimental: The induction of Type I interferon (IFN) MX-1 genes and the B-cell activation marker CD69 are downstream events that occur upon activation of the TLR7 pathway. The following is a human whole blood assay that measures their induction in response to a TLR7 agonist.
Heparinized human whole blood was harvested from human subjects and treated with test TLR7 agonist compounds at 1 mM. The blood was diluted with RPMI 1640 media and Echo was used to predot 10 nL per well giving a final concentration of 1 uM (10 nL in 10 uL of blood). After mixing on a shaker for 30 sec, the plates were covered and placed in a 37° C. chamber for o/n=17 hrs. Fixing/lysis buffer was prepared (5×->1× in H2O, warm at 37° C.; Cat #BD 558049) and kept the perm buffer (on ice) for later use.
For surface markers staining (CD69): prepared surface Abs: 0.045 ul hCD14-FITC (ThermoFisher Cat #MHCD1401)+0.6 ul hCD19-ef450 (ThermoFisher Cat #48-0198-42)+1.5 ul hCD69-PE (cat #BD555531)+0.855 ul FACS buffer. Added 3 ul/well, spin1000 rpm for 1 min and mixed on shaker for 30 sec, put on ice for 30 mins. Stop stimulation after 30 minutes with 70 uL of prewarmed 1× fix/lysis buffer and use Feliex mate to resuspend (15 times, change tips for each plate) and incubate at 37C for 10 minutes.
Centrifuge at 2000 rpm for 5 minutes aspirate with HCS plate washer, mix on shaker for 30 sec and then wash with 70 uL in dPBS and pelleted 2×s (2000 rpm for 5 min) and 50 ul wash in FACS buffer pelleted 1×s(2000 rpm for 5 min). Mix on shaker for 30 sec. For Intracellular markers staining (MX-1): Add 50 ul of BD Perm buffer III and mix on shaker for 30 sec. Incubate on ice for 30 minutes (in the dark). Wash with 50 uL of FACS buffer 2× (spin @2300 rpm×5 min after perm) followed by mixing on shaker for 30 sec. Resuspended in 20 ul of FACS buffer containing MX1 antibody ( ) (4812)-Alexa 647: Novus Biologicals #NBP2-43704AF647) 20 ul FACS bf+0.8 ul hlgG+0.04 ul MX-1. Spin 1000 rpm for 1 min, mix on shaker for 30se and the samples were incubated at RT in the dark for 45 minutes followed by washing 2×FACS buffer (spin @2300 rpm×5 min after perm). Resuspend 20 ul (35 uL total per well) of FACS buffer and cover with foil and place in 4° C. to read the following day. Plates were read on iQuePlus. The results were loaded into toolset and IC50 curves are generated in curve master. The y-axis 100% is set to 1 uM of resiquimod.

[1] = average where assay repeated, Table A1, read-out: hTLR7 Agonism EC50
[2] = average where assay repeated, Table A1, read-out: hWB CD69 EC50
[3] = Table A2, read-out: hTLR7 Agonism EC50
[4] = Table A2, read-out: hWB CD69 EC50

CCCCNc1nc(N)nc2cnn(Cc3cc(CNC)ccc3OC)c12 [Compound 132, N7-butyl-1-(2-methoxy-5-((methylamino)methyl)benzyl)-1H-pyrazolo[4,3-d]pyrimidine-5,7-diamine]
EC50 (human TLR7; [1]): 187 nM
EC50 (CD69; [2]): 10.9 nM

CCC[C@@H](CCO)Nc1nc(N)nc2cnn(Cc3nc(CO)ccc3OC)c12 [Compound 174, (3S)-3-[(5-amino-1-{[6-(hydroxyl-methyl)-3-methoxypyridin-2-yl]methyl}-1H-pyrazolo[4,3-d]pyrimidin-7-yl)amino]hexan-1-ol]
EC50 (human TLR7; [3]): 96.1 nM
EC50 (CD69; [4]): 41.4 nM

CCCCNc1nc(N)nc2cnn(Cc3cc(CN(C)C(=O)CC(C)(C)O)ccc3OC)c12 [Compound 148, N-[(3-{[5-amino-7-(butyl-amino)-1H-pyrazolo[4,3-d]pyrimidin-1-yl]methyl}-4-methoxyphenyl)methyl]-3-hydroxy-N,3-dimethyl-butanamide]
EC50 (human TLR7; [1]): 665 nM
EC50 (CD69; [2]): ≥ 1000 nM

COc1ccc(C(=O)NC2CCN(C)CC2)cc1Cn1ncc2nc(N)nc(NCC3CC4(CC4)C3)c21 [Compound 152, 3-({5-amino-7-[({spiro-[2.3]hexan-5-yl}methyl)-amino]-1H-pyrazolo[4,3-d]pyrimidin-1-yl}methyl)-4-methoxy-N-(1-methylpiperidin-4-yl)benzamide]
EC50 (human TLR7; [1]): 467 nM
EC50 (CD69; [2]): 159 nM

CCCCNc1nc(N)nc2cnn(Cc3cc(CN4CCN(C5CCC5)CC4)ccc3OC)c12 [Compound 130, N7-butyl-1-({5-[(4-cyclobutylpiperazin-1-yl)methyl]-2-methoxy-phenyl}methyl)-1H-pyrazolo[4,3-d]pyrimidine-5,7-diamine]
EC50 (human TLR7; [1]): 49.9 nM
EC50 (CD69; [2]): 516 nM

CCCCNc1nc(N)nc2cnn(Cc3cc(CN(C)CCNC)ccc3OC)c12 [Compound 126, N7-butyl-1-{[2-methoxy-5-({methyl[2-(methylamino)-ethyl]amino}methyl)phenyl]methyl}-1H-pyrazolo[4,3-d]pyrimidine-5,7-diamine]
EC50 (human TLR7; [1]): 158 nM
EC50 (CD69; [2]): 98.9 nM

COc1ccc(CN2CC(OC)C2)cc1Cn1ncc2nc(N)nc(NCC[C@H](O)C3CC3)c21 [Compound 160, (1S)-3-{[5-amino-1-({2-methoxy-5-[(3-methoxy-azetidin-1-yl)methyl]phenyl}-methyl)-1H-pyrazolo[4,3-d]pyrimidin-7-yl]amino}-1-cyclopropylpropan-1-ol]
EC50 (human TLR7; [1]): 740 nM
EC50 (CD69; [2]): 151 nM

N7-butyl-1-[(2-methoxy-5- {[(1S,4S)-5-methyl-2,5- diazabicyclo[2.2.1]heptan-2- yl]methyl}phenyl)methyl]- 1H-pyrazolo[4,3-d] pyrimidine-5,7-diamine [Compound 142]
EC50 (human TLR7; [1]): 94.2 nM
EC50 (CD69; [2]): 29.5 nM

CCCCNc1nc(N)nc2cnn(Cc3cc(CNC4CC4)ccc3OC)c12 [Compound 121]
EC50 (human TLR7; [1]): 116 nM
EC50 (CD69; [2]): 56.9 nM

CCCCNc1nc(N)nc2cnn(Cc3cc(CN)ccc3OC)c12 [Compound 114, 1-{[5-(aminomethyl)-2-methoxyphenyl]methyl}-N7-butyl-1H-pyrazolo[4,3-d]pyrimidine-5,7-diamine]
EC50 (human TLR7; [1]): 234 nM
EC50 (CD69; [2]): 6.7 nM

CCCCNc1nc(N)nc2cnn(Cc3cc(CNC4CC(O)C4)ccc3OC)c12 (stereo not drawn) [Compound 116, (1r,3r)-3-{[(3-{[5-amino-7-(butylamino)-1H-pyrazolo-[4,3-d]pyrimidin-1-yl]methyl}-4-methoxyphenyl)-methyl]amino}cyclobutan-1-ol]
EC50 (human TLR7; [1]): 335 nM
EC50 (CD69; [2]): 205 nM

CCC[C@@H](CCO)Nc1nc(N)nc2cnn(Cc3cc(C(=O)N[C@@H]4CCN(C)C4)ccc3OC)c12 [Compound 154, 3-[(5-amino-7-{[(3S)-1-hydroxyhexan-3-yl]amino}-1H-pyrazolo[4,3-d]pyrimidin-1-yl)methyl]-4-methoxy-N-[(3R)-1-methylpyrrolidin-3-yl] benzamide]
EC50 (human TLR7; [1]): 280 nM
EC50 (CD69; [2]): 144 nM

CCC[C@@H](CCO)Nc1nc(N)nc2c(C)nn(Cc3cc(CNC4CCOCC4)ccc3OC)c12 [Compound 162, (3S)-3-({5-amino-1-[(2-methoxy-5-{[(oxan-4-yl)amino]methyl}phenyl)methyl]-3-methyl-1H-pyrazolo[4,3-d]pyrimidin-7-yl}amino)-hexan-1-ol]
EC50 (human TLR7; [1]): 294 nM
EC50 (CD69; [2]): 90.3 nM

CCC[C@@H](CCO)Nc1nc(N)nc2cnn(Cc3cc(CN4CC[C@H](O)C4)c(F)cc3OC)c12 [Compound 176, (3S)-1-({5-[(5-amino-7-{[(3S)-1-hydroxyhexan-3-yl]amino}-1H-pyrazolo[4,3-d]pyrimidin-1-yl)methyl]-2-fluoro-4-methoxyphenyl}methyl) pyrrolidin-3-ol]
EC50 (human TLR7; [3]): 57.2 nM
EC50 (CD69; [4]): 5.7 nM

CCC[C@@H](CCO)Nc1nc(N)nc2cnn(Cc3cc(CN4CCNCC4)c(F)cc3OC)c12 [Compound 167, (3S)-3-{[5-amino-1-({4-fluoro-2-methoxy-5-[(piperazin-1-yl)methyl]phenyl}methyl)-1H-pyrazolo[4,3-d]pyrimidin-7-yl]amino}hexan-1-ol]
EC50 (human TLR7; [3]): 189 nM
EC50 (CD69; [4]): 145 nM

CCC[C@@H](CCO)Nc1nc(N)nc2cnn(Cc3cc(CNCCO)c(F)cc3OC)c12 [Compound 172, (3S)-3-({5-amino-1-[(4-fluoro-5-{[(2-hydroxyethyl)amino]methyl}-2-methoxyphenyl)methyl]-1H-pyrazolo[4,3-d]pyrimidin-7-yl}amino)hexan-1-ol]
EC50 (human TLR7; [3]): 167 nM
EC50 (CD69; [4]): 29.8 nM

4-[3-({5-amino-7-[({spiro- [2.3]hexan-5-yl}methyl)- amino]-1H-pyrazolo[4,3- d]pyrimidin-1-yl}methyl)-4- methoxybenzoyl]piperazin- 2-one [Compound 153]
EC50 (human TLR7; [1]): 2250 nM
EC50 (CD69; [2]): 485 nM

CCCCNc1nc(N)nc2cnn(Cc3cc(CN4CC(F)(F)C4)ccc3OC)c12 [Compound 151, N7-butyl-1-({5-[(3,3-difluoro-azetidin-1-yl)methyl]-2-methoxyphenyl}methyl)-1H-pyrazolo[4,3-d] pyrimidine-5,7-diamine]
EC50 (human TLR7; [1]): 768 nM
EC50 (CD69; [2]): ≥ 1000 nM
